Test results taken from patent US10590392B2, “Generation of airway epithelial organoids from human pluripotent stem cells” (TRUSTEES OF BOSTON UNIVERSITY, priority 2017, dated 2020).
Entries after “also recorded” stand apart in the source; their conditions may differ.

How the values were obtained:
[1] = system: iPSC-derived NKX2-1GFP+ lung progenitors; assay: Post-specification patterning of hPSC-derived lung progenitors, treatment day 15 to 19, RT-qPCR/flow cytometry of NKX2-1GFP+ cells; type: cell-based, human
Procedure: Measurement of mRNA expression by reverse transcriptase quantitative real time PCR (RT-qPCR) was performed as previously described(Longmire et al., 2012). Briefly, RNA was extracted from cells using a QIAzol Lysis Reagent (Qiagen, Venlo, Netherlands) and 150 ng of RNA was transcribed to cDNA using reverse transcription reagents (Applied Biosystems). Real time PCR (qPCR) was performed using TaqMan Fast Universal PCR Master Mix (ThermoFisher) and TaqMan (Applied Biosystems) reagents. The cDNA was diluted 1:3 and 2 μL of cDNA was added to each 25 μL (for Applied Biosystems StepOne 96-well System) or 12.5 μL (for Applied Biosystems QuantStudio7 384-well system) qPCR reaction. Each sample was run in technical triplicates and cycle (Ct) values were averaged between triplicates for analysis. Relative gene expression, normalized to 18S control, was calculated as fold change in 18S-normalized gene expression, compared to baseline, using the 2^(−ΔΔCT) method. Baseline, defined as fold change=1, was set to undifferentiated iPSC levels, or if undetected, a cycle number of 40 was assigned to allow fold change calculations. Adult lung control RNA was extracted from a normal lung biopsy sample. Primers were all TaqMan probes purchased from Applied Biosystems. Specifics of primers used are detailed in Table 1.
Day 14-16 cells from the lung progenitor directed differentiation protocol were harvested with 0.05% Trypsin-EDTA (Invitrogen) and replated in clumps in either Matrigel-coated tissue culture dishes in two-dimensional culture or in three-dimensional Matrigel drops. Matrigel drops were formed by resuspending cell clumps directly in undiluted Matrigel matrix, pipetting 50-100 μL into each well, and allowing the Matrigel/cell mixture to gel for 30 minutes at 37° C. Cell drops were then covered completely with growth medium.
Post-specification culture conditions were determined by the addition of growth factors to cSFDM. For patterning experiments, growth factors were added to a base media containing 10 ng/mL rhFGF10 (“Base”) and additional factors detailed in the results text. For concentrations of growth factors required for each experiment, see Table 2. Cells were additionally cultured with 10 μM Y-27632 (Tocris) for 24 hours after replating. Doses of growth factors were determined based on previously published directed differentiation protocols (Huang et al., 2013; Kurmann et al., 2015; Longmire et al., 2012) as well as dose-response experiments using 7XTCF lentiviral reporters for CHIR99021 (Figure S2d-e). […]
To test whether the inventors could efficiently induce a proximal vs distal program in iPSC-derived lung progenitors, the inventors modulated key developmental pathways beginning on day 15 of differentiation in our model system (FIG. 1C-1E), and monitored changes in SOX2 and SOX9 expression that are due to coordinated proximal vs distal patterning changes in purified NKX2-1^GFP+ cells within 4 days of treatment. At day 15, post-lung specification, the inventors cultured cells in a base media of “low dose” (10 ng/mL) FGF10 to promote proliferation without strongly inducing patterning(Volckaert et al., 2013). From this base media, the inventors stimulated the following pathways: Wnt signaling via the potent GSK3β inhibitor CHIR99021, hereafter CHIR; FGF signaling using FGF2 or high dose (100 ng/mL) FGF10; BMP signaling using BMP4; and TGFβ signaling using TGFβ

[2] = system: iPSC-derived anterior foregut endoderm cells; assay: Lung specification from anterior foregut endoderm with or without CHIR (NKX2-1GFP flow cytometry, 7XTCF-mCherry reporter); type: cell-based, human
[3] = NKX2-1GFP+ sorted cells on day 19 after treatment day 15-19, vs base media (10 ng/mL FGF10), RT-qPCR
[4] = in response to CHIR withdrawal day 15-19, within 4 days

Which “expression of Wnt signaling responsive genes LEF1, NKD1, AXIN2” value ([1]; CHIR withdrawal day 15-19, day 19) does the source give for `Cc1c[nH]c(-c2cnc(NCCNc3ccc(C#N)cn3)nc2-c2ccc(Cl)cc2Cl)n1` [CHIR, CHIR99021] here?
The value was “reduced expression”.

And the “lentiviral TCF-driven reporter (7XTCF-mCherry) expression” value ([1]; CHIR withdrawal day 15-19, day 19, NKX2-1+ cells)?
The value was “reduced”.

What about the “SCGB3A2 mRNA expression” value [1, 3] of the same compound?
Its value is “decreased expression”.

What about the “SOX2 mRNA expression” value [1, 3] of the same compound?
Its value is “significantly decreased”.

And the “SOX9 mRNA expression” value [1, 3]?
The value was “increased”.

And the “expression of distal markers SOX9 and ETV5” value [1, 4]?
The value was “downregulated; also recorded: decreased expression”.

And the “expression of proximal airway markers (SCGB3A2, TP63/P63, MUC5AC)” value [1, 4]?
The value was “upregulated; also recorded: significantly increased expression”.

And the “percentage of NKX2-1GFP+ cells by day 19” value ([1]; withdrawal of CHIR from day 15 to 19, flow cytometry)?
The value was “significantly decreased percentage”.

And the “rescue of NKX2-1GFP expression by later addition” value ([2]; cells differentiated without CHIR to day 15)?
The value was “could not be rescued”.

What about the “NKX2-1GFP expression during lung specification” value ([2]; presence of CHIR vs without, as early as 48 h after initiation of specification, maintained until at least day 15) of the same compound?
Its value is “significantly higher levels”.

And the “7TC (7XTCF-mCherry) reporter expression” value ([2]; specification media with CHIR vs vehicle alone, normalized to Ef1aL-mCherry)?
The value was “rapid upregulation”.
